Laboratory results from US10080757B2 (WISCONSIN ALUMNI RESEARCH FOUNDATION, priority 2016, dated 2018).
Converted amounts (≈) assume the structure as drawn. “Also recorded” adds a separate entry of the source. Like-named read-outs stand apart in the source and are kept apart here.

Columns and labels:
C. elegans [1] = experiment: C. elegans growth and proliferation; format: in vivo; conditions: for Prevention of C. elegans maturation to adulthood and eventual proliferation: 100 μM; for Effective inhibitor of C. elegans growth at 250 μM / Inhibition of C. elegans proliferation: 250 μM
M. smegmatis [2] = experiment: Agar disk diffusion assay; parameters: zone of inhibition: dose or concentration left out as unconfirmed; conditions: for zone of inhibition: Mycolicibacterium smegmatis, read-out: Inhibition zone; for Mycobacterial growth inhibition (in words): disk diffusion, solid media
Description: M. smegmatis was grown to saturation over 48 hours at 37° C. in Middlebrook 7H9 media with Albumin Dextrose Catalase (ADC) enrichment and 0.05% Tween80. The culture was diluted to OD600=˜0.2 in LB liquid media and 100 μL of dilute culture was spread onto LB agar plates, then allowed to soak into the agar for 1 hour at room temperature. Sterile disks (3 mm diameter) were impregnated with a solution of inhibitor in DMSO (1.5 μL) and placed on top of the bacterial lawn. […] The plates were incubated for 72 hours at 37° C., at which point a lawn of bacteria was visible. Zones of inhibition were measured as the average diameter of the region around a cloning disk where bacterial growth was not visible. For each disk, three diameter measurements were taken and averaged.

CeUGM = CeUGM inhibition; format: biochemical, C. elegans
recombinant MtbUGM = biological target: T1, recombinant MtbUGM (Mycobacterium tuberculosis, UniProt P9WIQ1); experiment: biochemical; conditions: for inhibition at 100 µM: read-out: % inhib MtbUGM (100 μM)
T1 construct: made in house

[3] = Aggregation by Dynamic Light Scattering (DLS); format: physicochemical; conditions: for Aggregates observed?: 50 mM sodium phosphate buffer, 1% DMSO; for Aggregation by DLS: concentrations up to 50 μM
Description: A representative subset of the compounds (1, 2, and 4) were evaluated for aggregation by Dynamic Light Scattering (DLS), see Table 1. Samples for DLS analysis were prepared in 50 mM sodium phosphate buffer from DMSO inhibitor stocks, at a final DMSO concentration of 1%, and a range of final concentrations of inhibitor.

M. smegmatis [4] = experiment: Microplate Alamar Blue Assay (MIC, liquid culture); format: cell-based; conditions: Mycolicibacterium smegmatis
Description: The culture was diluted to OD600=˜0.02 in LB liquid media and added to 96-well plates at a final volume of 100 μL, with added inhibitor concentrations in two-fold dilutions. Perimeter wells were filled with sterile water. After 24 hours at 37° C. in a shaking incubator, 10 μL of the Alamar Blue reagent was added to each well. The plate was incubated for an additional 4 hours at 37° C., at which point fluorescence emission at 585 nm was measured using a plate reader. The lowest inhibitor concentration at which 99% or greater growth inhibition was observed was determined to be the MIC.

C. elegans [5] = experiment: C. elegans growth and proliferation; format: in vivo; conditions: threshold below which proliferation occurs at decreased rate
Source text: As concentration decreases, each of these compounds reaches a threshold where they no longer prevent worm proliferation, but rather cause retarded growth and development. The concentration that appears to be this threshold is reported above. Below this concentration, C. elegans growth and proliferation occur, but at a decreased rate with visible ill effects to the animal.

C. elegans [6] = experiment: Bleach sensitivity assay (time until first rupture); format: in vivo; conditions: 50 microM; adult worms
Description: Compounds were tested at 50 microM. Adult worms (C. elegans) were chosen for testing and time until first rupture was measured when worms were placed in a bleach, sodium hydroxide solution. […] A graph showing results is provided as FIG. 4. Each treatment group has approximately an n=20. The Thompson Tau technique was used to determine statistical outliers.

[7] = 50 μM compound (FIG. 1), read-out: Inhibition of MtbUGM activity
[8] = Table 2, standard deviation, n = 3
[9] = Table 3, liquid media, at least 99% growth inhibition
[10] = 50 μM, mean of two replicates, read-out: % inhib MtbUGM (50 μM)

T1 sequence (P9WIQ1 whole entry): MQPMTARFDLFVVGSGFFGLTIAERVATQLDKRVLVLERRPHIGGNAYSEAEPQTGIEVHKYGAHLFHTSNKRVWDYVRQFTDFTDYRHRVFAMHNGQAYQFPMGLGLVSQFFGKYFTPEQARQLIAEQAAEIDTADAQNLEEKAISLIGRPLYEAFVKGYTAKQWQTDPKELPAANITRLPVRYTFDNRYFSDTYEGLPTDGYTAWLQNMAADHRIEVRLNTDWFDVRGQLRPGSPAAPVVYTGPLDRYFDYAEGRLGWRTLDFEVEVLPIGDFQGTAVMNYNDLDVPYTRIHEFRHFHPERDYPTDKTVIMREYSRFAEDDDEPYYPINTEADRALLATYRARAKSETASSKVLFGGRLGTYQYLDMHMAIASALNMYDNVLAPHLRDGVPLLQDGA

SMILES | Effective inhibitor of C. elegans growth at 250 μM (C. elegans [1]; Table 7) | zone of inhibition (M. smegmatis [2]) | CeUGM % Inhibition at 2.5 μM (CeUGM) | IC50 (recombinant MtbUGM; [8]) | MIC (M. smegmatis [4]; [9]) | Inhibition of C. elegans proliferation (C. elegans [1]) | Apparent MIC (μM) to inhibit C. elegans propagation (C. elegans [5]) | other results
O=C(O)C(Cc1ccc(I)cc1)Nc1nc(-c2ccc(Cl)c(Cl)c2)cs1 (centres unmarked) [Compound 1, 2-((4-(3,4-Dichlorophenyl)thiazol-2-yl)amino)-3-(4-iodophenyl)propanoic acid] | No | 5 ± 0.1 mm | 69.5 ± 1.2% | 6 µM | 50 µM (≈ 26 µg/mL) |  |  | inhibition at 50 µM (recombinant MtbUGM; [7]): > 90%; Aggregates observed? ([3]; Conc. 10 uM): No; Aggregates observed? ([3]; Conc. 25 uM): No; Aggregates observed? ([3]; Conc. 50 uM): No; Aggregates observed? ([3]; Conc. 100 uM): Yes; Aggregation by DLS [3]: No aggregation was observed
CS(=O)(=O)NC(=O)C(Cc1ccc(I)cc1)Nc1nc(-c2ccc(Cl)c(Cl)c2)cs1 (centres unmarked) [Compound 2, 2-((4-(3,4-dichlorophenyl)thiazol-2-yl)amino)-3-(4-iodophenyl)-N-(methylsulfonyl)propanamide] | Yes | 7 ± 0.1 mm | 80.7 ± 1.1% | 12 ± 5 µM | 25 µM (≈ 14.9 µg/mL) | significantly inhibit | 100 µM | Prevention of C. elegans maturation to adulthood and eventual proliferation (C. elegans [1]): show the ability to prevent C. elegans maturation to adulthood and eventual proliferation; inhibition at 50 µM (recombinant MtbUGM; [7]): > 90%; Aggregates observed? ([3]; Conc. 10 uM): No; Aggregates observed? ([3]; Conc. 25 uM): No; Aggregates observed? ([3]; Conc. 50 uM): No; Aggregates observed? ([3]; Conc. 100 uM): No; Aggregation by DLS [3]: No aggregation was observed; Time until first rupture in bleach, sodium hydroxide solution (C. elegans [6]): enhances bleach sensitivity significantly; also recorded: statistically significant decrease
O=C(NS(=O)(=O)C(F)(F)F)C(Cc1ccc(I)cc1)Nc1nc(-c2ccc(Cl)c(Cl)c2)cs1 (centres unmarked) [Compound 3, 2-((4-(3,4-dichlorophenyl)thiazol-2-yl)amino)-3-(4-iodophenyl)-N-((trifluoromethyl)sulfonyl)propanamide] | Yes | 7.7 ± 0.6 mm | 84.8 ± 2.2% | 16 ± 10 µM | 50 µM (≈ 32.5 µg/mL) | significantly inhibit | 100 µM | Prevention of C. elegans maturation to adulthood and eventual proliferation (C. elegans [1]): show the ability to prevent C. elegans maturation to adulthood and eventual proliferation
O=C(NS(=O)(=O)c1ccc([N+](=O)[O-])cc1)C(Cc1ccc(I)cc1)Nc1nc(-c2ccc(Cl)c(Cl)c2)cs1 (centres unmarked) [Compound 5, 2-((4-(3,4-dichlorophenyl)thiazol-2-yl)amino)-3-(4-iodophenyl)-N-((4-nitrophenyl)sulfonyl)propanamide] | Yes | 4.2 ± 0.3 mm | 93.2 ± 0.1% | 4 ± 1 µM | 50 µM (≈ 35.2 µg/mL) | significantly inhibit | 125 µM | 
COc1ccc(S(=O)(=O)NC(=O)C(Cc2ccc(I)cc2)Nc2nc(-c3ccc(Cl)c(Cl)c3)cs2)cc1 (centres unmarked) [Compound 6, 2-((4-(3,4-dichlorophenyl)thiazol-2-yl)amino)-3-(4-iodophenyl)-N-((4-methoxyphenyl)sulfonyl)propanamide] | No | 6 ± 0.1 mm | 92.4 ± 1.2% | 18 ± 9 µM | 25 µM (≈ 17.2 µg/mL) |  |  | 
Cc1ccc(S(=O)(=O)NC(=O)C(Cc2ccc(I)cc2)Nc2nc(-c3ccc(Cl)c(Cl)c3)cs2)cc1 (centres unmarked) [Compound 7, 2-((4-(3,4-dichlorophenyl)thiazol-2-yl)amino)-3-(4-iodophenyl)-N-tosylpropanamide] | No | 6 ± 0.6 mm | 90.5 ± 0.2% | 1 ± 1 µM | 12.5 µM (≈ 8.4 µg/mL) |  |  | Mycobacterial growth inhibition (in words) (M. smegmatis [2]): inactivity
O=C(NS(=O)(=O)c1ccc(Cl)cc1)C(Cc1ccc(I)cc1)Nc1nc(-c2ccc(Cl)c(Cl)c2)cs1 (centres unmarked) [Compound 8, N-((4-chlorophenyl)sulfonyl)-2-((4-(3,4-dichlorophenyl)thiazol-2-yl)amino)-3-(4-iodophenyl)propanamide] | Yes | 6.3 ± 0.6 mm | 100 ± 0% | 3 ± 1 µM | 12.5 µM (≈ 8.66 µg/mL) | significantly inhibit | 250 µM | 
O=C(NS(=O)(=O)c1ccccc1[N+](=O)[O-])C(Cc1ccc(I)cc1)Nc1nc(-c2ccc(Cl)c(Cl)c2)cs1 (centres unmarked) [Compound 9, 2-((4-(3,4-dichlorophenyl)thiazol-2-yl)amino)-3-(4-iodophenyl)-N-((2-nitrophenyl)sulfonyl)propanamide] | Yes | 5.7 ± 0.1 mm | 92.1 ± 1.0% | 2 ± 1 µM | 12.5 µM (≈ 8.79 µg/mL) | significantly inhibit | 125 µM | 
COC(=O)C(Cc1ccc(I)cc1)Nc1nc(-c2ccc(Cl)c(Cl)c2)cs1 (centres unmarked) [Compound 10, Methyl 2-((4-(3,4-dichlorophenyl)thiazol-2-yl)amino)-3-(4-iodophenyl)propanoate] | No |  |  |  |  |  |  | Mycobacterial growth inhibition (in words) (M. smegmatis [2]): no mycobacterial growth inhibition was observed; inhibition at 50 µM (recombinant MtbUGM; [7]): 30%
O=C(O)CC1Sc2nnc(Cc3ccc(Br)cc3)n2N=C1c1ccc(Cl)cc1 (centres unmarked) [Compound 11, 2-(3-(4-bromobenzyl)-6-(4-chlorophenyl)-7H-[1,2,4]triazolo[3,4-b][1,3,4]thiadiazin-7-yl)acetic acid] |  |  |  |  |  |  |  | Effective inhibitor of C. elegans growth at 250 μM (C. elegans [1]; Table 8): No; CeUGM % Inhibition at 10 μM (CeUGM): 53.5 ± 3.0%; inhibition at 50 µM (recombinant MtbUGM; [10]): 36%; inhibition at 100 µM (recombinant MtbUGM; mean of two replicates): 72%; IC50 (recombinant MtbUGM; Table 4): 80 ± 29 µM; MIC (M. smegmatis [4]; Table 4): 500 µM (≈ 239 µg/mL)
CS(=O)(=O)NC(=O)CC1Sc2nnc(Cc3ccc(Br)cc3)n2N=C1c1ccc(Cl)cc1 (centres unmarked) [Compound 12, 2-(3-(4-bromobenzyl)-6-(4-chlorophenyl)-7H-[1,2,4]triazolo[3,4-b][1,3,4]thiadiazin-7-yl)-N-(methylsulfonyl)acetamide] |  |  |  |  |  |  |  | Effective inhibitor of C. elegans growth at 250 μM (C. elegans [1]; Table 8): No; CeUGM % Inhibition at 10 μM (CeUGM): 68.1 ± 2.1%; inhibition at 50 µM (recombinant MtbUGM; [10]): 50%; inhibition at 100 µM (recombinant MtbUGM; mean of two replicates): 58%; IC50 (recombinant MtbUGM; Table 4): 108 ± 42 µM; MIC (M. smegmatis [4]; Table 4): 500 µM (≈ 277 µg/mL)
O=C(CC1Sc2nnc(Cc3ccc(Br)cc3)n2N=C1c1ccc(Cl)cc1)NS(=O)(=O)c1ccccc1 (centres unmarked) [Compound 13, 2-(3-(4-bromobenzyl)-6-(4-chlorophenyl)-7H-[1,2,4]triazolo[3,4-b][1,3,4]thiadiazin-7-yl)-N-(phenylsulfonyl)acetamide] |  |  |  |  |  | significantly inhibit | 250 µM | Effective inhibitor of C. elegans growth at 250 μM (C. elegans [1]; Table 8): Yes; CeUGM % Inhibition at 10 μM (CeUGM): 91.7 ± 0.5%; inhibition at 50 µM (recombinant MtbUGM; [10]): 92%; inhibition at 100 µM (recombinant MtbUGM; mean of two replicates): 94%; IC50 (recombinant MtbUGM; Table 4): 19 ± 6 µM; MIC (M. smegmatis [4]; Table 4): 125 µM (≈ 77.1 µg/mL)
